Experimental data from PMC6471066, “Spiralyde A, an Antikinetoplastid Dolabellane from the Brown Alga Dictyota spiralis” (Marine Drugs, 2019).

System: promastigote form of L. amazonensis
Experiment: not given
Parameters: method as in PMID 22970332
Conditions: promastigotes; cited from earlier work
In the case of `C[C@H]1/C=C/[C@@]2(C)CC[C@@H](C(C)(C)O)[C@@H]2[C@@H](O)C[C@](C)(O)/C=C/C1` [dolabelladienetriol (9), dolabelladienetriol], the IC50 is given as 44 µM.

System: epimastigotes Trypanosoma cruzi (Y strain)
Experiment: Trypanocidal capacity assay (Alamar Blue)
Format: cell-based
Conditions: Trypanosoma cruzi, 96 h, epimastigote form
Method: (§1) Bioassay-guided fractionation of the crude extract yielded six dolabellanes 1–6. Their in vitro antiprotozoal activity was evaluated applying serial dilutions of the compounds, and IC50 were calculated using the Alamar Blue reagent reaction.
(§2) The activity of the crude extract, different subfractions and isolated compounds were evaluated against promastigotes of Leishmania amazonensis (MHOM/BR/77/LTB0016) and epimastigotes Trypanosoma cruzi (Y strain). Cytotoxicity assay of the active compounds was tested against the murine macrophage J774.A1 cell line (ATCC # TIB-67).
The activity was evaluated in vitro against epimastigote stage of Trypanosoma cruzi. Different concentrations of fractions and compounds were incubated in 96 wells plate for 96 h with a density of 10^5 parasite/well. 10% of Alamar blue was added to each well and the IC50 was calculated. All assays have been realized in triplicate.
Work on `O=C(Cn1ccnc1[N+](=O)[O-])NCc1ccccc1` [Benznidazole, reference compound] yielded an IC50 of 6.95 µM. For `C=C(C)[C@H]1CC(=O)[C@]2(C)C[C@@H]3O[C@@]3(C)CC/C=C(\C)CC[C@@H]12` [compound 4, (1R,3S,4S,7E,11S,12S)-3,4-Epoxy-14-oxo-7,18-dolabelladiene], the IC50 was greater than 100 µM. Work on `C=C(C)C1CC(=O)C2(C)CC=C(C)CCC=C(C)CCC12` [compound 6, (1R,3Z,7E,11S,12S)-14-Oxo-3,7,18-dolabellatriene] yielded an IC50 greater than 100 µM. For `C=C(C)[C@H]1CC(=O)[C@]2(C)C/C=C(\C)CC/C=C(\C)CC[C@@H]12` [compound 5, (1R,3E,7E,11S,12S)-14-Oxo-3,7,18-dolabellatriene], the IC50 was greater than 100 µM. In the case of `C=C(C)[C@H]1CC[C@]2(C)C[C@@H]3O[C@@]3(C)CC/C=C(\C)CC[C@@H]12` [compound 2, (1R,3S,4S,7E,11S,12S)-3,4-Epoxy-7,18-dolabelladiene], the IC50 is reported as 35.3 ± 4.09 µM. Molecule `C=C(C)[C@H]1C[C@H](O)[C@]2(C)C[C@@H]3O[C@@]3(C)CC/C=C(\C)CC[C@@H]12` [compound 3, (1R,3S,4S,7E,11S,12S,14S)-3,4-Epoxy-14-hydroxy-7,18-dolabelladiene] has an IC50 greater than 100 µM. Work on `C=C(C)C1CCC2(C)CC=C(C)CCC=C(C=O)C(O)CC12` (stereo not shown) [Spiralyde A (1), Spiralyde A] yielded an IC50 of 5.62 ± 2.48 µM.

Same assay, conditions: epimastigote form
For `C=C(C)[C@H]1CC(=O)[C@]2(C)C[C@@H]3O[C@@]3(C)CC/C=C(\C)CC[C@@H]12` [compound 4, (1R,3S,4S,7E,11S,12S)-3,4-Epoxy-14-oxo-7,18-dolabelladiene], the “antikinetoplastid activity against Trypanosoma cruzi (in words)” value was “inactive”. In the case of `C=C(C)[C@H]1CC[C@]2(C)C[C@@H]3O[C@@]3(C)CC/C=C(\C)CC[C@@H]12` [compound 2, (1R,3S,4S,7E,11S,12S)-3,4-Epoxy-7,18-dolabelladiene], the “antikinetoplastid activity against Trypanosoma cruzi (in words)” value is reported as “moderate activity”. For `C=C(C)[C@H]1C[C@H](O)[C@]2(C)C[C@@H]3O[C@@]3(C)CC/C=C(\C)CC[C@@H]12` [compound 3, (1R,3S,4S,7E,11S,12S,14S)-3,4-Epoxy-14-hydroxy-7,18-dolabelladiene], the “antikinetoplastid activity against Trypanosoma cruzi (in words)” value was “inactive”.

Same assay, conditions: epimastigote form; 96 h
For `O=C(Cn1ccnc1[N+](=O)[O-])NCc1ccccc1` [Benznidazole, reference compound], the IC50 was 6.94 ± 1.94 µM.

System: not listed separately
Experiment: Cytotoxicity assay (Alamar Blue)
Format: cell-based
Conditions: mouse, J774.A1 macrophage cell line (ATCC TIB-67), murine macrophage J774.A1
Method: as §2, with “TIB-67).[…]” for “TIB-67).”
`O=C(Cn1ccnc1[N+](=O)[O-])NCc1ccccc1` [Benznidazole, reference compound] showed a CC50 at 24 h of 400 ± 4 µM. With `CCCCCCCCCCCCCCCCOP(=O)([O-])OCC[N+](C)(C)C` [Miltefosine, reference compound] the CC50 at 24 h was 72.2 ± 3.06 µM. In the case of `C=C(C)[C@H]1CC[C@]2(C)C[C@@H]3O[C@@]3(C)CC/C=C(\C)CC[C@@H]12` [compound 2, (1R,3S,4S,7E,11S,12S)-3,4-Epoxy-7,18-dolabelladiene], the CC50 at 24 h is reported as 69.98 ± 0.14 µM. `C=C(C)C1CCC2(C)CC=C(C)CCC=C(C=O)C(O)CC12` (stereo not shown) [Spiralyde A (1), Spiralyde A] gave a CC50 at 24 h of 23.4 ± 5.62 µM.

System: promastigotes of Leishmania amazonensis (MHOM/BR/77/LTB0016)
Experiment: Leishmanicidal capacity assay (Alamar Blue)
Format: cell-based
Conditions: Leishmania amazonensis; promastigote form
Method: as §1, §2
Logarithmic phase cultures of Leishmania amazonensis were used for experimental purposes, and the in vitro susceptibility assay was performed in sterilized 96-well plates. 10^6/well parasites were added to wells containing different concentration of the drug to be tested. Percentages of inhibition, 50% inhibitory concentrations (IC50) for active compounds were calculated by linear regression analysis using the Alamar Blue method.
Work on `C=C(C)[C@H]1CC(=O)[C@]2(C)C[C@@H]3O[C@@]3(C)CC/C=C(\C)CC[C@@H]12` [compound 4, (1R,3S,4S,7E,11S,12S)-3,4-Epoxy-14-oxo-7,18-dolabelladiene] yielded an IC50 greater than 100 µM. For `C=C(C)C1CC(=O)C2(C)CC=C(C)CCC=C(C)CCC12` [compound 6, (1R,3Z,7E,11S,12S)-14-Oxo-3,7,18-dolabellatriene], the IC50 was greater than 100 µM. In the case of `C=C(C)[C@H]1CC(=O)[C@]2(C)C/C=C(\C)CC/C=C(\C)CC[C@@H]12` [compound 5, (1R,3E,7E,11S,12S)-14-Oxo-3,7,18-dolabellatriene], the IC50 is reported as greater than 100 µM. Molecule `C=C(C)[C@H]1CC[C@]2(C)C[C@@H]3O[C@@]3(C)CC/C=C(\C)CC[C@@H]12` [compound 2, (1R,3S,4S,7E,11S,12S)-3,4-Epoxy-7,18-dolabelladiene] has an IC50 of 36.8 ± 5.2 µM. In the case of `C=C(C)[C@H]1C[C@H](O)[C@]2(C)C[C@@H]3O[C@@]3(C)CC/C=C(\C)CC[C@@H]12` [compound 3, (1R,3S,4S,7E,11S,12S,14S)-3,4-Epoxy-14-hydroxy-7,18-dolabelladiene], the IC50 is reported as greater than 100 µM. Molecule `C=C(C)C1CCC2(C)CC=C(C)CCC=C(C=O)C(O)CC12` (stereo not shown) [Spiralyde A (1), Spiralyde A] has an IC50 of 15.5 ± 0.26 µM.

Same assay, conditions: promastigote form
With `C=C(C)[C@H]1CC(=O)[C@]2(C)C[C@@H]3O[C@@]3(C)CC/C=C(\C)CC[C@@H]12` [compound 4, (1R,3S,4S,7E,11S,12S)-3,4-Epoxy-14-oxo-7,18-dolabelladiene] the “antikinetoplastid activity against Leishmania amazonensis (in words)” value was “inactive”. In the case of `C=C(C)[C@H]1CC[C@]2(C)C[C@@H]3O[C@@]3(C)CC/C=C(\C)CC[C@@H]12` [compound 2, (1R,3S,4S,7E,11S,12S)-3,4-Epoxy-7,18-dolabelladiene], the “antikinetoplastid activity against Leishmania amazonensis (in words)” value is reported as “moderate activity”. With `C=C(C)[C@H]1C[C@H](O)[C@]2(C)C[C@@H]3O[C@@]3(C)CC/C=C(\C)CC[C@@H]12` [compound 3, (1R,3S,4S,7E,11S,12S,14S)-3,4-Epoxy-14-hydroxy-7,18-dolabelladiene] the “antikinetoplastid activity against Leishmania amazonensis (in words)” value was “inactive”.
